Residue numbers refer to the chain shown, from its start. Each block holds one compound with its values, some of them ahead of it.
Experiments:
GltPh [1] = target: T1, GltPh (Pyrococcus horikoshii, UniProt O59010, D37H/K40H/K55C/K125H/K132H/K223H/K264H/C321A/A364C/E368H); assay: isothermal titration calorimetry; format: binding; conditions: inward-facing, Hg2+-crosslinked K55C/A364C; DDM; 200 mM NaCl, pH 7.4, 15 °C; n 0.8; structure in nanodiscs 3.71 Å
T1 construct: gene PH1295; C-terminal His8 cut by thrombin; E. coli DH10B; homotrimer; DDM (ITC) or MSP1E3 nanodiscs (cryo-EM)
T1 sequence (O59010 1-425 D37H/K40H/K55C/K125H/K132H/K223H/K264H/C321A/A364C/E368H limits assumed): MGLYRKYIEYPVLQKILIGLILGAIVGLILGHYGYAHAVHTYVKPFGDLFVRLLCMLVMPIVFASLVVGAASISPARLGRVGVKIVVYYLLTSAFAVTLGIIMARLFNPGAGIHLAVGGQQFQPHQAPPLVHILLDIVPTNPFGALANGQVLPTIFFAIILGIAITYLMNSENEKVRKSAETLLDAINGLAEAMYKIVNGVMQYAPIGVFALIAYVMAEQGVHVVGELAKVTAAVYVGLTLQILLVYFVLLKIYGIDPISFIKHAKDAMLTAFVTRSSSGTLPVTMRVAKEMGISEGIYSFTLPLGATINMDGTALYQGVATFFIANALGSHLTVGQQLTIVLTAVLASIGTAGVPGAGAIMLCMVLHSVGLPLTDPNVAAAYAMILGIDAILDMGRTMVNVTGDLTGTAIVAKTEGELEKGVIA

GltPh [2] = target: T2, GltPh (Pyrococcus horikoshii, UniProt O59010, D37H/K40H/K125H/K132H/K223H/K264H/E368H); assay: cryo-EM structure; format: binding; conditions: outward-facing state, MSP1E3 nanodiscs; 200 mM NaCl, 10 mM DL-TBOA, pH 7.4
T2 construct: gene PH1295; C-terminal His8 cut by thrombin; E. coli DH10B; homotrimer; DDM (ITC) or MSP1E3 nanodiscs (cryo-EM)
T2 sequence (O59010 1-425 D37H/K40H/K125H/K132H/K223H/K264H/E368H limits assumed): T1 sequence (O59010 1-425 D37H/K40H/K55C/K125H/K132H/K223H/K264H/C321A/A364C/E368H limits assumed) with C55K, A321C, C364A

[3] = target: GltPh, the fully functional seven-histidine mutant referred to as wildtype (WT) (UniProt O59010); assay: cryo-EM structure; single-particle cryo-EM of GltPh reconstituted into MSP1E3 nanodiscs (E. coli polar lipid extract : egg phosphatidylcholine 3:1); 20 mM Hepes/Tris pH 7.4, 200 mM NaCl with 1 mM L-asp, 10 mM DL-TBOA, 10 mM TFB-TBOA or NaCl only; 3D classes without symmetry, then C3 refinement
GltPh [4] = target: T1, GltPh; assay: cryo-EM structure; format: binding; conditions: inward-facing, Hg2+-crosslinked K55C/A364C; MSP1E3 nanodiscs; 200 mM NaCl, 1 mM L-asp, pH 7.4
[5] = target: GltPh-K55C/C321A/A364C, cross-linked with HgCl2 (GltPh^IFS) (UniProt O59010); assay: cryo-EM structure; single-particle cryo-EM of GltPh reconstituted into MSP1E3 nanodiscs (E. coli polar lipid extract : egg phosphatidylcholine 3:1); 20 mM Hepes/Tris pH 7.4, 200 mM NaCl with 1 mM L-asp, 10 mM DL-TBOA, 10 mM TFB-TBOA or NaCl only; 3D classes without symmetry, then C3 refinement

Compound: N[C@H](C(=O)O)[C@H](OCc1cccc(NC(=O)c2ccc(C(F)(F)F)cc2)c1)C(=O)O [TFB-TBOA, (2S,3S)−3-[3-[4-(trifluoromethyl)benzoylamino]benzyloxy]aspartate]
Kd (GltPh [1]): 3.8 µM

Compound: NC(C(=O)O)C(OCc1ccccc1)C(=O)O (racemic) [DL-TBOA, DL-threo-β-benzyloxyaspartate]
cryo-EM structure (GltPh [2]): wild type outward-facing GltPh in complex with TBOA (GltPh^OFS-TBOA)

stoichiometry N [3]: 3
Compound: GltPh, the fully functional seven-histidine mutant referred to as wildtype (WT) (from UniProt O59010 1-417) (natural protein)

Compound: N[C@@H](CC(=O)O)C(=O)O [L-asp]
cryo-EM structure (GltPh [4]): bound to L-asp (GltPh^IFS-Asp)

stoichiometry N [5]: 3
Compound: GltPh-K55C/C321A/A364C, cross-linked with HgCl2 (GltPh^IFS) (from UniProt O59010 1-425) (natural protein)

Reference: article PMC7682989, “Large domain movements through the lipid bilayer mediate substrate release and inhibition of glutamate transporters” (eLife, 2020)
